The supplement of paper PMC10307832

How the values were obtained:
Assay in all cases: relative viability (nuclei count vs DMSO), 5 days (fraction); higher = more cells survive
[1] = tested on: NCI-H1755
How it was run: (§1)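 After 5 days of treatment, lung cancer cells in 1536-well plates were fixed and stained in a single step (final 0.05% Triton X-100, 1% formaldehyde, 1 ug/ml Hoechst) and their nuclei counted on 4× images. Treatment had been applied by pin tool the day after seeding as one drug alone or as a fixed anchor-drug dose with five library-drug doses (not always all listed) in √10 steps. Relative viability is the nuclei count of treated wells divided by that of vehicle wells, and values are medians of duplicate plates.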

[2] = tested on: NCI-H1395
How it was run: as §1

[3] = tested on: LCLC-103H
How it was run: as §1

[4] = tested on: HCC-15
How it was run: as §1

[5] = tested on: NCI-H1648
How it was run: as §1

[6] = tested on: A549
How it was run: as §1

[7] = tested on: UMC-11
How it was run: as §1

[8] = tested on: HCC-44
How it was run: as §1

[9] = tested on: EKVX
How it was run: as §1

SMILES: Nc1ccn([C@@H]2O[C@H](CO)[C@@H](O)[C@@H]2O)c(=O)n1 [Cytarabine] + Nc1ncn([C@H]2C[C@H](O)[C@@H](CO)O2)c(=O)n1 [Decitabine] (partner 2 µM)
- relative viability ([1]; first compound 0.005 µM): 0.705
- relative viability ([1]; first compound 0.01581 µM): 0.619
- relative viability ([1]; first compound 0.05 µM): 0.659
- relative viability ([1]; first compound 0.1581 µM): 0.472
- relative viability ([1]; first compound 0.5 µM): 0.424
- relative viability ([2]; first compound 0.005 µM): 0.634
- relative viability ([2]; first compound 0.01581 µM): 0.688
- relative viability ([2]; first compound 0.05 µM): 0.529
- relative viability ([2]; first compound 0.1581 µM): 0.368
- relative viability ([2]; first compound 0.5 µM): 0.364
- relative viability ([3]; first compound 0.005 µM): 0.71
- relative viability ([3]; first compound 0.01581 µM): 0.734
- relative viability ([3]; first compound 0.05 µM): 0.73
- relative viability ([3]; first compound 0.1581 µM): 0.751
- relative viability ([3]; first compound 0.5 µM): 0.724
- relative viability ([4]; first compound 0.005 µM): 0.511
- relative viability ([4]; first compound 0.01581 µM): 0.528
- relative viability ([4]; first compound 0.05 µM): 0.594
- relative viability ([4]; first compound 0.1581 µM): 0.462
- relative viability ([4]; first compound 0.5 µM): 0.464
- relative viability ([5]; first compound 0.005 µM): 0.479
- relative viability ([5]; first compound 0.01581 µM): 0.526
- relative viability ([5]; first compound 0.05 µM): 0.502
- relative viability ([5]; first compound 0.1581 µM): 0.35
- relative viability ([5]; first compound 0.5 µM): 0.362
- relative viability ([6]; first compound 0.005 µM): 0.215
- relative viability ([6]; first compound 0.01581 µM): 0.115
- relative viability ([6]; first compound 0.05 µM): 0.161
- relative viability ([6]; first compound 0.1581 µM): 0.0447
- relative viability ([6]; first compound 0.5 µM): 0.0287
- relative viability ([7]; first compound 0.005 µM): 0.547
- relative viability ([7]; first compound 0.01581 µM): 0.521
- relative viability ([7]; first compound 0.05 µM): 0.328
- relative viability ([7]; first compound 0.1581 µM): 0.32
- relative viability ([7]; first compound 0.5 µM): 0.306
- relative viability ([8]; first compound 0.005 µM): 1.04
- relative viability ([8]; first compound 0.01581 µM): 0.941
- relative viability ([8]; first compound 0.05 µM): 0.87
- relative viability ([8]; first compound 0.1581 µM): 0.748
- relative viability ([8]; first compound 0.5 µM): 0.737
- relative viability ([9]; first compound 0.005 µM): 0.485
- relative viability ([9]; first compound 0.01581 µM): 0.282
- relative viability ([9]; first compound 0.05 µM): 0.259
- relative viability ([9]; first compound 0.5 µM): 0.184

SMILES: CC(=O)O[C@@]12CO[C@@H]1C[C@H](O)[C@@]1(C)C(=O)[C@H](O)C3=C(C)[C@@H](OC(=O)[C@H](O)[C@@H](NC(=O)OC(C)(C)C)c4ccccc4)C[C@@](O)([C@@H](OC(=O)c4ccccc4)[C@H]21)C3(C)C [Docetaxel] + Nc1ncn([C@H]2C[C@H](O)[C@@H](CO)O2)c(=O)n1 [Decitabine] (partner 2 µM)
- relative viability ([1]; first compound 0.0002 µM): 0.772
- relative viability ([1]; first compound 0.000632 µM): 0.788
- relative viability ([1]; first compound 0.002 µM): 0.604
- relative viability ([1]; first compound 0.006325 µM): 0.463
- relative viability ([1]; first compound 0.02 µM): 0.507
- relative viability ([2]; first compound 0.0002 µM): 0.709
- relative viability ([2]; first compound 0.000632 µM): 0.731
- relative viability ([2]; first compound 0.002 µM): 0.635
- relative viability ([2]; first compound 0.006325 µM): 0.425
- relative viability ([2]; first compound 0.02 µM): 0.295
- relative viability ([3]; first compound 0.0002 µM): 0.712
- relative viability ([3]; first compound 0.000632 µM): 0.796
- relative viability ([3]; first compound 0.002 µM): 0.761
- relative viability ([3]; first compound 0.006325 µM): 0.713
- relative viability ([3]; first compound 0.02 µM): 0.524
- relative viability ([4]; first compound 0.0002 µM): 0.58
- relative viability ([4]; first compound 0.000632 µM): 0.338
- relative viability ([4]; first compound 0.002 µM): 0.217
- relative viability ([4]; first compound 0.02 µM): 0.191
- relative viability ([5]; first compound 0.0002 µM): 0.452
- relative viability ([5]; first compound 0.000632 µM): 0.487
- relative viability ([5]; first compound 0.002 µM): 0.339
- relative viability ([5]; first compound 0.006325 µM): 0.216
- relative viability ([5]; first compound 0.02 µM): 0.231
- relative viability ([6]; first compound 0.0002 µM): 0.297
- relative viability ([6]; first compound 0.000632 µM): 0.18
- relative viability ([6]; first compound 0.002 µM): 0.0587
- relative viability ([6]; first compound 0.006325 µM): 0.0522
- relative viability ([6]; first compound 0.02 µM): 0.0318
- relative viability ([7]; first compound 0.0002 µM): 0.399
- relative viability ([7]; first compound 0.000632 µM): 0.613
- relative viability ([7]; first compound 0.002 µM): 0.401
- relative viability ([7]; first compound 0.006325 µM): 0.345
- relative viability ([7]; first compound 0.02 µM): 0.238
- relative viability ([8]; first compound 0.0002 µM): 0.96
- relative viability ([8]; first compound 0.000632 µM): 0.97
- relative viability ([8]; first compound 0.002 µM): 0.853
- relative viability ([8]; first compound 0.006325 µM): 0.472
- relative viability ([8]; first compound 0.02 µM): 0.566
- relative viability ([9]; first compound 0.0002 µM): 0.279
- relative viability ([9]; first compound 0.000632 µM): 0.327
- relative viability ([9]; first compound 0.002 µM): 0.26
- relative viability ([9]; first compound 0.006325 µM): 0.198
- relative viability ([9]; first compound 0.02 µM): 0.134
